Experimental data: the NIST ThermoML archive (doi:10.1021/je400562z)

Details: for surface tension liquid-gas: Ring tensiometer; for mass density / viscosity: 101.33 kPa, Liquid; for viscosity: Concentric cylinders viscometry

CN(CCO)CCO [N-methyldiethanolamine]
Details	mass density [kg/m3]	surface tension liquid-gas [mN/m]	viscosity [mPa·s]
303.15 K	1033.8	37.33	56.3
313.15 K	1026.7	–	34.45
323.15 K	1018.9	–	22.93
333.15 K	–	35.47	14.99
